Patent US5955500A (G. D. Searle & Co., priority 1997, dated 1999)
Where “and” joins values, the source holds several entries; their conditions need not be identical. Identical values can stand only once. Like-named read-outs stand apart in the source and are kept apart here.

How the values were obtained:
canine heart = settings: for AH time / Heart rate / Mean arterial pressure: mean ± SE
Description: Fourteen adult mongrel dogs of either sex weighing between 19 and 25 kg were prepared for chronic electrophysiologic investigation by implanting epicardial electrodes and an indwelling aortic catheter. The dogs were fasted overnight and initially anesthetized with halothane on the day of surgery. After tracheal intubation, anesthesia was maintained with isoflurane and oxygen via positive pressure ventilation to keep end tidal carbon dioxide within the normal range. Muscular relaxation was induced by pancuronium. A right thoracotomy was performed in the fifth intercostal space. Three bipolar electrode pairs were sutured to the epicardial surface of the right atrial appendage and on the right and left ventricular apex (FIG. 5). A bipolar electrode was sutured to the right atrium close to the anatomical region of the sinoatrial node. A bipolar plunge electrode was placed into base of the interventricular septum to record a His bundle electrogram. An indwelling arterial catheter was placed into the aorta through the left femoral artery after surgical exposure of the artery at the inner side of the hind limb. All electrode leads were subcutaneously tunneled and exited through the skin between the scapulae. Incisions were closed in anatomic fashion and standard postoperative methods of analgesia were provided with 0.015 mg/kg of buprenorphine (Buprenex®, Reckitt & Colman, Hull, UK) and two times of 25 mg/kg cefazolin (Cefazolin Sodium®, SoloPak Laboratories, Elk Groove Village, Ill.) and dogs were allowed to recover from surgery for a period of seven days prior to testing.
Electrical signals from the bipolar electrodes, after suitable amplification in a custom built preamplifier (gain 1000), were filtered in a separate custom designed and built common mode rejection amplifier with a bandpass filter of 10-1000 Hz and individually adjusted for signal strength (maximal gain 400). […] Right atrial appendage (RA), right ventricular apex (RVA) and His bundle electrograms (HB) were recorded, simultaneously. […] All measurements of conduction times were made during spontaneous sinus rhythm.
The His bundle electrode (HBE) was advanced into the base of the interatrial septum from the aortic root. The electrode was advanced from a point located just behind and to the right of the origin of the right coronary artery. The HBE was slowly advanced parallel to the aorta, inferiorly and slightly anteriorly until a well discernible His potential was recorded. AV conduction (AH) interval was measured as the time difference (ms) between the onset of the initial rapid deflection in the RA electrogram to the beginning of the His potential in the HB electrogram. His-ventricular (HV) conduction time interval (ms) was measured from the beginning of the His potential (HBE) to the initial deflection of the QRS complex wave (earliest left ventricular activation) in a simultaneously recorded surface ECG lead II.
As an indicator of automaticity, sinus node recovery time (SNRT) was determined by pacing the right atrial appendage (30 s at 180 and 200 beats/min at 2 msec pulse duration; 2×threshold). SNRT was measured from the last pacing spike to the first spontaneous atrial activity on the His bundle electrogram after cessation of pacing (ms).
A timed extrastimulus (S2) was delivered 300 ms after the preceding pacing spike (S1).
Verapamil was dissolved in 5% dextrose and water ([…]).
During the postoperative period, each dog was trained to stand quietly in a sling during electrophysiological monitoring. Prior to measurement, electrical signals in each dog were monitored to verify the absence of spontaneous arrhythmias other-than normal respiratory sinus arrhythmias.
From the resting dog, 5 channel records were obtained at a sampling rate of 1 kHz per channel for 7 min to determine the following conduction intervals: AH, HV, QRS, QT and HR. A corrected QT interval [QTc=QT interval in ms/ (R-R interval in s)^1/2 ] was also calculated.

[1] = pH 5, individual replicates

SMILES: COc1ccc(CCN(C)CCCC(C#N)(c2ccc(OC)c(OC)c2)C(C)C)cc1OC (racemic) [90/10S]
- AH time (canine heart; 0.1 mg/kg i.v., 0 min): 87 ± 6 ms
- Heart rate (canine heart; 0.1 mg/kg i.v., 0 min): 111 ± 7 beats per min
- Mean arterial pressure (canine heart; 0.1 mg/kg i.v., 0 min): 94 ± 3 mmHg
- AH time (canine heart; 0.1 mg/kg i.v., 1 min): 88 ± 6 ms
- Heart rate (canine heart; 0.1 mg/kg i.v., 1 min): 103 ± 7 beats per min
- Mean arterial pressure (canine heart; 0.1 mg/kg i.v., 1 min): 97 ± 4 mmHg
- AH time (canine heart; 0.1 mg/kg i.v., 2 min): 90 ± 6 ms
- Heart rate (canine heart; 0.1 mg/kg i.v., 2 min): 104 ± 6 beats per min
- Mean arterial pressure (canine heart; 0.1 mg/kg i.v., 2 min): 99 ± 3 mmHg
- AH time (canine heart; 0.1 mg/kg i.v., 3 min): 91 ± 6 ms
- Heart rate (canine heart; 0.1 mg/kg i.v., 3 min): 101 ± 8 beats per min
- Mean arterial pressure (canine heart; 0.1 mg/kg i.v., 3 min): 99 ± 3 mmHg
- AH time (canine heart; 0.1 mg/kg i.v., 4 min): 89 ± 6 ms
- Heart rate (canine heart; 0.1 mg/kg i.v., 4 min): 101 ± 7 beats per min
- Mean arterial pressure (canine heart; 0.1 mg/kg i.v., 4 min): 100 ± 4 mmHg
- AH time (canine heart; 0.1 mg/kg i.v., 5 min): 89 ± 7 ms
- Heart rate (canine heart; 0.1 mg/kg i.v., 5 min): 103 ± 7 beats per min
- Mean arterial pressure (canine heart; 0.1 mg/kg i.v., 5 min): 99 ± 3 mmHg
- AH time (canine heart; 0.2 mg/kg i.v., 0 min): 91 ± 7 ms
- Heart rate (canine heart; 0.2 mg/kg i.v., 0 min): 123 ± 7 beats per min
- Mean arterial pressure (canine heart; 0.2 mg/kg i.v., 0 min): 94 ± 4 mmHg
- AH time (canine heart; 0.2 mg/kg i.v., 1 min): 95 ± 8 ms
- Heart rate (canine heart; 0.2 mg/kg i.v., 1 min): 124 ± 10 beats per min
- Mean arterial pressure (canine heart; 0.2 mg/kg i.v., 1 min): 98 ± 4 mmHg
- AH time (canine heart; 0.2 mg/kg i.v., 2 min): 99 ± 8 ms
- Heart rate (canine heart; 0.2 mg/kg i.v., 2 min): 116 ± 7 beats per min
- Mean arterial pressure (canine heart; 0.2 mg/kg i.v., 2 min): 99 ± 4 mmHg
- AH time (canine heart; 0.2 mg/kg i.v., 3 min): 98 ± 7 ms
- Heart rate (canine heart; 0.2 mg/kg i.v., 3 min): 113 ± 6 beats per min
- Mean arterial pressure (canine heart; 0.2 mg/kg i.v., 3 min): 99 ± 4 mmHg
- AH time (canine heart; 0.2 mg/kg i.v., 4 min): 97 ± 7 ms
- Heart rate (canine heart; 0.2 mg/kg i.v., 4 min): 116 ± 7 beats per min
- Mean arterial pressure (canine heart; 0.2 mg/kg i.v., 4 min): 100 ± 4 mmHg
- AH time (canine heart; 0.2 mg/kg i.v., 5 min): 104 ± 7 ms
- Heart rate (canine heart; 0.2 mg/kg i.v., 5 min): 118 ± 8 beats per min
- Mean arterial pressure (canine heart; 0.2 mg/kg i.v., 5 min): 101 ± 3 mmHg
- AH time (canine heart; 0.4 mg/kg i.v., 0 min): 100 ± 9 ms
- Heart rate (canine heart; 0.4 mg/kg i.v., 0 min): 145 ± 10 beats per min
- Mean arterial pressure (canine heart; 0.4 mg/kg i.v., 0 min): 83 ± 7 mmHg
- AH time (canine heart; 0.4 mg/kg i.v., 1 min): 111 ± 10 ms
- Heart rate (canine heart; 0.4 mg/kg i.v., 1 min): 134 ± 9 beats per min
- Mean arterial pressure (canine heart; 0.4 mg/kg i.v., 1 min): 89 ± 7 mmHg
- AH time (canine heart; 0.4 mg/kg i.v., 2 min): 116 ± 10 ms
- Heart rate (canine heart; 0.4 mg/kg i.v., 2 min): 128 ± 10 beats per min
- Mean arterial pressure (canine heart; 0.4 mg/kg i.v., 2 min): 90 ± 7 mmHg
- AH time (canine heart; 0.4 mg/kg i.v., 3 min): 116 ± 12 ms
- Heart rate (canine heart; 0.4 mg/kg i.v., 3 min): 128 ± 11 beats per min
- Mean arterial pressure (canine heart; 0.4 mg/kg i.v., 3 min): 90 ± 7 mmHg
- AH time (canine heart; 0.4 mg/kg i.v., 4 min): 114 ± 9 ms
- Heart rate (canine heart; 0.4 mg/kg i.v., 4 min): 129 ± 10 beats per min
- Mean arterial pressure (canine heart; 0.4 mg/kg i.v., 4 min): 93 ± 7 mmHg
- AH time (canine heart; 0.4 mg/kg i.v., 5 min): 112 ± 10 ms
- Heart rate (canine heart; 0.4 mg/kg i.v., 5 min): 125 ± 9 beats per min
- Mean arterial pressure (canine heart; 0.4 mg/kg i.v., 5 min): 92 ± 7 mmHg
- Sinus node recovery time (SNRT), significance (canine heart; paced at 200 beats/min): significant decrease

SMILES: COc1ccc(CCN(C)CCCC(C#N)(c2ccc(OC)c(OC)c2)C(C)C)cc1OC (racemic) [80/20S]
- AH time (canine heart; 0.1 mg/kg i.v., 0 min): 90 ± 4 ms
- Heart rate (canine heart; 0.1 mg/kg i.v., 0 min): 125 ± 8 beats per min
- Mean arterial pressure (canine heart; 0.1 mg/kg i.v., 0 min): 96 ± 3 mmHg
- AH time (canine heart; 0.1 mg/kg i.v., 1 min): 95 ± 5 ms
- Heart rate (canine heart; 0.1 mg/kg i.v., 1 min): 126 ± 7 beats per min
- Mean arterial pressure (canine heart; 0.1 mg/kg i.v., 1 min): 99 ± 3 mmHg
- AH time (canine heart; 0.1 mg/kg i.v., 2 min): 97 ± 5 ms
- Heart rate (canine heart; 0.1 mg/kg i.v., 2 min): 119 ± 7 beats per min
- Mean arterial pressure (canine heart; 0.1 mg/kg i.v., 2 min): 98 ± 3 mmHg
- AH time (canine heart; 0.1 mg/kg i.v., 3 min): 98 ± 5 ms
- Heart rate (canine heart; 0.1 mg/kg i.v., 3 min): 115 ± 7 beats per min
- Mean arterial pressure (canine heart; 0.1 mg/kg i.v., 3 min): 99 ± 3 mmHg
- AH time (canine heart; 0.1 mg/kg i.v., 4 min): 96 ± 5 ms
- Heart rate (canine heart; 0.1 mg/kg i.v., 4 min): 116 ± 8 beats per min
- Mean arterial pressure (canine heart; 0.1 mg/kg i.v., 4 min): 100 ± 3 mmHg
- AH time (canine heart; 0.1 mg/kg i.v., 5 min): 96 ± 6 ms
- Heart rate (canine heart; 0.1 mg/kg i.v., 5 min): 123 ± 7 beats per min
- Mean arterial pressure (canine heart; 0.1 mg/kg i.v., 5 min): 100 ± 3 mmHg
- AH time (canine heart; 0.2 mg/kg i.v., 0 min): 99 ± 5 ms
- Heart rate (canine heart; 0.2 mg/kg i.v., 0 min): 136 ± 9 beats per min
- Mean arterial pressure (canine heart; 0.2 mg/kg i.v., 0 min): 89 ± 2 mmHg
- AH time (canine heart; 0.2 mg/kg i.v., 1 min): 111 ± 8 ms
- Heart rate (canine heart; 0.2 mg/kg i.v., 1 min): 134 ± 8 beats per min
- Mean arterial pressure (canine heart; 0.2 mg/kg i.v., 1 min): 95 ± 4 mmHg
- AH time (canine heart; 0.2 mg/kg i.v., 2 min): 115 ± 9 ms
- Heart rate (canine heart; 0.2 mg/kg i.v., 2 min): 129 ± 7 beats per min
- Mean arterial pressure (canine heart; 0.2 mg/kg i.v., 2 min): 94 ± 4 mmHg
- AH time (canine heart; 0.2 mg/kg i.v., 3 min): 113 ± 8 ms
- Heart rate (canine heart; 0.2 mg/kg i.v., 3 min): 124 ± 7 beats per min
- Mean arterial pressure (canine heart; 0.2 mg/kg i.v., 3 min): 97 ± 4 mmHg
- AH time (canine heart; 0.2 mg/kg i.v., 4 min): 115 ± 9 ms
- Heart rate (canine heart; 0.2 mg/kg i.v., 4 min): 125 ± 8 beats per min
- Mean arterial pressure (canine heart; 0.2 mg/kg i.v., 4 min): 99 ± 3 mmHg
- AH time (canine heart; 0.2 mg/kg i.v., 5 min): 116 ± 9 ms
- Heart rate (canine heart; 0.2 mg/kg i.v., 5 min): 123 ± 9 beats per min
- Mean arterial pressure (canine heart; 0.2 mg/kg i.v., 5 min): 98 ± 3 mmHg
- AH time (canine heart; 0.4 mg/kg i.v., 0 min): 111 ± 5 ms
- Mean arterial pressure (canine heart; 0.4 mg/kg i.v., 0 min): 87 ± 3 mmHg
- Heart rate (canine heart; 0.4 mg/kg i.v., 0 min, listed as 80/205): 155 ± 12 beats per min
- AH time (canine heart; 0.4 mg/kg i.v., 1 min): 121 ± 4 ms
- Mean arterial pressure (canine heart; 0.4 mg/kg i.v., 1 min): 95 ± 3 mmHg
- Heart rate (canine heart; 0.4 mg/kg i.v., 1 min, listed as 80/205): 153 ± 11 beats per min
- AH time (canine heart; 0.4 mg/kg i.v., 2 min): 123 ± 5 ms
- Mean arterial pressure (canine heart; 0.4 mg/kg i.v., 2 min): 97 ± 3 mmHg
- Heart rate (canine heart; 0.4 mg/kg i.v., 2 min, listed as 80/205): 149 ± 10 beats per min
- AH time (canine heart; 0.4 mg/kg i.v., 3 min): 125 ± 6 ms
- Mean arterial pressure (canine heart; 0.4 mg/kg i.v., 3 min): 101 ± 3 mmHg
- Heart rate (canine heart; 0.4 mg/kg i.v., 3 min, listed as 80/205): 147 ± 10 beats per min
- AH time (canine heart; 0.4 mg/kg i.v., 4 min): 127 ± 6 ms
- Mean arterial pressure (canine heart; 0.4 mg/kg i.v., 4 min): 103 ± 3 mmHg
- Heart rate (canine heart; 0.4 mg/kg i.v., 4 min, listed as 80/205): 140 ± 7 beats per min
- AH time (canine heart; 0.4 mg/kg i.v., 5 min): 129 ± 6 ms
- Mean arterial pressure (canine heart; 0.4 mg/kg i.v., 5 min): 103 ± 3 mmHg
- Heart rate (canine heart; 0.4 mg/kg i.v., 5 min, listed as 80/205): 135 ± 9 beats per min
- Occurrence of second and third degree AV conduction block (canine heart; 0.4 mg/kg i.v., listed as 80R/20S-verapamil): 3 animals

SMILES: COc1ccc(CCN(C)CCCC(C#N)(c2ccc(OC)c(OC)c2)C(C)C)cc1OC (racemic) [compound 70]
- Concentration in octanol [1]: 4350 ng/mL and 4200 ng/mL and 4240 ng/mL
- Concentration in water [1]: 5810 ng/mL and 6000 ng/mL and 5380 ng/mL

SMILES: COc1ccc(CCN(C)CCCC(C#N)(c2ccc(OC)c(OC)c2)C(C)C)cc1OC (racemic) [compound 90]
- Concentration in octanol [1]: 5800 ng/mL and 5290 ng/mL and 4790 ng/mL
- Concentration in water [1]: 5900 ng/mL and 6180 ng/mL and 5100 ng/mL
